This is an account of results in patent publication US9693556B2, “Herbicidal pyridazinone derivatives” (SYNGENTA LIMITED, priority 2011, dated 2017).

What all share (type): in vivo
Test [1] concerns Alopecurus myosuroides (ALOMY). Briefly: Pre-emergence herbicidal glasshouse test on Alopecurus myosuroides. Conditions: pre-emergence; 1000 g/h; evaluated after 13 days. The method in brief: (§1)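 Steps: sow seeds in standard soil; cultivate 1 d (pre-) or 8 d (post-emergence) at 24/16 °C, 14 h light, 65% humidity; spray 1000 g/h in acetone/water plus Tween 20; grow on, watering twice daily; score percentage damage after 13 d.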

Test [2] has as its system Setaria faberi (SETFA). Briefly: Pre-emergence herbicidal glasshouse test on Setaria faberi. Conditions: pre-emergence; 1000 g/h; evaluated after 13 days. The gist of the method: as §1
The subject of test [3] is Echinochloa crus-galli (ECHCG). Briefly: Pre-emergence herbicidal glasshouse test on Echinochloa crus-galli. Conditions: pre-emergence; 1000 g/h; evaluated after 13 days. The gist of the method: as §1
Test [4] relates to Solanum nigrum (SOLNI). Briefly: Pre-emergence herbicidal glasshouse test on Solanum nigrum. The settings on record: pre-emergence; 1000 g/h; evaluated after 13 days. The gist of the method:
as §1

Test [5] concerns Amaranthus retoflexus (AMARE). Briefly: Pre-emergence herbicidal glasshouse test on Amaranthus retoflexus. The settings on record: pre-emergence; 1000 g/h; evaluated after 13 days. The gist of the method: as §1
The test system of test [6] is Ipomoea hederacea (IPOHE). Briefly: Pre-emergence herbicidal glasshouse test on Ipomoea hederacea. Conditions: pre-emergence; 1000 g/h; evaluated after 13 days. The gist of the method: as §1
The subject of test [7] is Alopecurus myosuroides (ALOMY). Briefly: Post-emergence herbicidal glasshouse test on Alopecurus myosuroides. Conditions: post-emergence; 1000 g/h; evaluated after 13 days. The gist of the method: as §1
Test [8] relates to Setaria faberi (SETFA). Briefly: Post-emergence herbicidal glasshouse test on Setaria faberi. The settings on record: post-emergence; 1000 g/h; evaluated after 13 days. The method in brief:
as §1

Test [9] concerns Echinochloa crus-galli (ECHCG). Put plainly: Post-emergence herbicidal glasshouse test on Echinochloa crus-galli. The settings on record: post-emergence; 1000 g/h; evaluated after 13 days. The method in brief: as §1
The test system of test [10] is Solanum nigrum (SOLNI). Briefly: Post-emergence herbicidal glasshouse test on Solanum nigrum. Conditions: post-emergence; 1000 g/h; evaluated after 13 days. The gist of the method:
as §1

The subject of test [11] is Amaranthus retoflexus (AMARE). Put plainly: Post-emergence herbicidal glasshouse test on Amaranthus retoflexus. Conditions: post-emergence; 1000 g/h; evaluated after 13 days. The gist of the method:
as §1

In test [12] the test system is Ipomoea hederacea (IPOHE). Briefly: Post-emergence herbicidal glasshouse test on Ipomoea hederacea. Conditions: post-emergence; 1000 g/h; evaluated after 13 days. The method in brief:
as §1

For the molecule `CCCCn1cc(C)cc(-c2cnn(C)c(=O)c2O)c1=O` [Compound 6.003], the “PRE Application ALOMY herbicidal damage (five point scale)” value (shortened to “PRE Application ALOMY herbicidal damage”) in [1] was 1 (1=0-19% damage). For the same molecule, the “PRE Application SETFA herbicidal damage (five point scale)” value (shortened to “PRE Application SETFA herbicidal damage”) in the test on Setaria faberi (SETFA) [2] is reported as 1 (1=0-19% damage). In [3], the “PRE Application ECHCG herbicidal damage (five point scale)” value (shortened to “PRE Application ECHCG herbicidal damage”) is 1 (1=0-19% damage). In addition, in the test on Solanum nigrum (SOLNI) [4], the “PRE Application SOLNI herbicidal damage (five point scale)” value (shortened to “PRE Application SOLNI herbicidal damage”) is recorded as 1 (1=0-19% damage). Further, in test [5], the “PRE Application AMARE herbicidal damage (five point scale)” value (shortened to “PRE Application AMARE herbicidal damage”) is on record as 1 (1=0-19% damage). The “PRE Application IPOHE herbicidal damage (five point scale)” value (shortened to “PRE Application IPOHE herbicidal damage”) in test [6] is recorded as 1 (1=0-19% damage). Moreover, the “POST Application ALOMY herbicidal damage (five point scale)” value (shortened to “POST Application ALOMY herbicidal damage”) in test [7] is given as 2 (2=20-39% damage). The “POST Application SETFA herbicidal damage (five point scale)” value (“POST Application SETFA herbicidal damage” below) with Setaria faberi (SETFA) [8] is on record as 2 (2=20-39% damage). Besides, the “POST Application ECHCG herbicidal damage (five point scale)” value (from here on “POST Application ECHCG herbicidal damage”) in test [9] is recorded as 4 (4=60-79% damage). Moreover, in the test with Solanum nigrum (SOLNI) [10], the “POST Application SOLNI herbicidal damage (five point scale)” value (shortened to “POST Application SOLNI herbicidal damage”) is listed as 4 (4=60-79% damage). In test [11], the “POST Application AMARE herbicidal damage (five point scale)” value (“POST Application AMARE herbicidal damage” below) is given as 4 (4=60-79% damage). Moreover, in test [12], the “POST Application IPOHE herbicidal damage (five point scale)” value (from here on “POST Application IPOHE herbicidal damage”) is given as 2 (2=20-39% damage).
Regarding `Cn1ncc(-n2cccc(-c3ccc(C(F)(F)F)cc3)c2=O)c(O)c1=O` [Compound 7.001], the “PRE Application ALOMY herbicidal damage” value in [1] is given as 1 (1=0-19% damage). In addition, in the test on Setaria faberi (SETFA) [2], the “PRE Application SETFA herbicidal damage” value is reported as 1 (1=0-19% damage). Moreover, the “PRE Application ECHCG herbicidal damage” value in test [3] is on record as 1 (1=0-19% damage). Besides, in the test with Solanum nigrum (SOLNI) [4], the “PRE Application SOLNI herbicidal damage” value is 1 (1=0-19% damage). Besides, the “PRE Application AMARE herbicidal damage” value in test [5] is listed as 1 (1=0-19% damage). Besides, the “PRE Application IPOHE herbicidal damage” value in test [6] is 1 (1=0-19% damage). The “POST Application ALOMY herbicidal damage” value in [7] is 2 (2=20-39% damage). Moreover, the “POST Application SETFA herbicidal damage” value in the test with Setaria faberi (SETFA) [8] was 3 (3=40-59% damage). For the same molecule, in test [9], the “POST Application ECHCG herbicidal damage” value is on record as 4 (4=60-79% damage). For the same molecule, in the test with Solanum nigrum (SOLNI) [10], the “POST Application SOLNI herbicidal damage” value was 4 (4=60-79% damage). Moreover, the “POST Application AMARE herbicidal damage” value in [11] is listed as 3 (3=40-59% damage). Also, the “POST Application IPOHE herbicidal damage” value in [12] is given as 2 (2=20-39% damage).
Take `COc1cccc(-c2c(C(F)(F)F)ccn(-c3cnn(C)c(=O)c3O)c2=O)c1` [Compound 7.003]: the “PRE Application ALOMY herbicidal damage” value in [1] is 4 (4=60-79% damage). Further, the “PRE Application SETFA herbicidal damage” value with Setaria faberi (SETFA) [2] is recorded as 4 (4=60-79% damage). The “PRE Application ECHCG herbicidal damage” value in [3] is listed as 4 (4=60-79% damage). For the same molecule, the “PRE Application SOLNI herbicidal damage” value in the test on Solanum nigrum (SOLNI) [4] is listed as 5 (5=80-100% damage). Besides, in test [5], the “PRE Application AMARE herbicidal damage” value was 5 (5=80-100% damage). The “PRE Application IPOHE herbicidal damage” value in [6] is on record as 3 (3=40-59% damage). Also, the “POST Application ALOMY herbicidal damage” value in [7] is 4 (4=60-79% damage). Besides, the “POST Application SETFA herbicidal damage” value in the test on Setaria faberi (SETFA) [8] was 3 (3=40-59% damage). Also, the “POST Application ECHCG herbicidal damage” value in test [9] is 5 (5=80-100% damage). Further, the “POST Application SOLNI herbicidal damage” value with Solanum nigrum (SOLNI) [10] is 5 (5=80-100% damage). Also, in [11], the “POST Application AMARE herbicidal damage” value was 5 (5=80-100% damage). Besides, the “POST Application IPOHE herbicidal damage” value in test [12] was 3 (3=40-59% damage).
`Cn1ncc(-n2ccc(C(F)(F)F)c(-c3cccc(OC(F)(F)F)c3)c2=O)c(O)c1=O` [Compound 7.005]: the “PRE Application ALOMY herbicidal damage” value in [1] is given as 4 (4=60-79% damage). In the test with Setaria faberi (SETFA) [2], the “PRE Application SETFA herbicidal damage” value is reported as 4 (4=60-79% damage). Besides, in test [3], the “PRE Application ECHCG herbicidal damage” value was 5 (5=80-100% damage). For the same molecule, the “PRE Application SOLNI herbicidal damage” value in the test on Solanum nigrum (SOLNI) [4] is listed as 5 (5=80-100% damage). The “PRE Application AMARE herbicidal damage” value in test [5] is reported as 5 (5=80-100% damage). Moreover, the “PRE Application IPOHE herbicidal damage” value in test [6] is on record as 1 (1=0-19% damage). Further, the “POST Application ALOMY herbicidal damage” value in test [7] is 4 (4=60-79% damage). Moreover, the “POST Application SETFA herbicidal damage” value in the test on Setaria faberi (SETFA) [8] is 4 (4=60-79% damage). Also, the “POST Application ECHCG herbicidal damage” value in test [9] is given as 5 (5=80-100% damage). For the same molecule, the “POST Application SOLNI herbicidal damage” value in the test with Solanum nigrum (SOLNI) [10] is listed as 5 (5=80-100% damage). In addition, in test [11], the “POST Application AMARE herbicidal damage” value is 5 (5=80-100% damage). The “POST Application IPOHE herbicidal damage” value in test [12] is reported as 4 (4=60-79% damage).
